According to paper PMC6292510 (Molecular pharmaceutics, 2017):
Like-named read-outs stand apart in the source and are kept apart here.

Columns and labels:
[1] = target: human Ether-a-go-go-Related Gene (hERG) potassium channel (Homo sapiens, UniProt Q12809); assay: Predictor hERG Fluorescence Polarization Assay; type: binding
[2] = Chromatographic hydrophobicity indexing; type: physicochemical; details: C18 RP-HPLC, rank among the test compounds
[3] = test system: neonatal rat ventricular cardiomyocytes (NRVCMs); assay: MTT viability assay of neonatal rat ventricular cardiomyocytes; type: cell-based; details: 0, 50, 100 and 200 µM; 24 or 48 h of analog exposure
[4] = test system: neonatal rat ventricular cardiomyocytes (NRVCMs); assay: LIVE/DEAD assay of neonatal rat ventricular cardiomyocytes; type: cell-based; details: 50 μM; 12, 24 and 48 h; apparent beginning 12 to 24 h
[5] = target: cytochrome P450 3A4 (CYP3A4) (Homo sapiens, UniProt P08684); assay: P450-Glo CYP3A4; type: in vitro ADME; details: 400 μM (parent hexosamines)
Chain of cytochrome P450 3A4 (CYP3A4) (P08684 whole entry): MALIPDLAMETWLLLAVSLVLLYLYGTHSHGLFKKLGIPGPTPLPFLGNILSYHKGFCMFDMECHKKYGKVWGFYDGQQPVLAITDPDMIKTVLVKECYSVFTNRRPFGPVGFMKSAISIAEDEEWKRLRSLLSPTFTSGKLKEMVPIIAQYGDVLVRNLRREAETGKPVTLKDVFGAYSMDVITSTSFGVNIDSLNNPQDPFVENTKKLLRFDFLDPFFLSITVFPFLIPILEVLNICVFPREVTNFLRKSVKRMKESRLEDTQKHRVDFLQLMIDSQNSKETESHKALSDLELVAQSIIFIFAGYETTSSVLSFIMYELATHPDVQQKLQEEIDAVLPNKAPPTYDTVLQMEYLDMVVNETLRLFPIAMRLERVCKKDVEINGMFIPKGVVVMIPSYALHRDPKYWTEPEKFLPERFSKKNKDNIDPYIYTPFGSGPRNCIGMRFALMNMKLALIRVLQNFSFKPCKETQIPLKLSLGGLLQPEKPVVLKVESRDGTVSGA

[6] = read-out: hERG inhibition, concentration range, Fig. 8B & C

Chain of human Ether-a-go-go-Related Gene (hERG) potassium channel (Q12809 whole entry): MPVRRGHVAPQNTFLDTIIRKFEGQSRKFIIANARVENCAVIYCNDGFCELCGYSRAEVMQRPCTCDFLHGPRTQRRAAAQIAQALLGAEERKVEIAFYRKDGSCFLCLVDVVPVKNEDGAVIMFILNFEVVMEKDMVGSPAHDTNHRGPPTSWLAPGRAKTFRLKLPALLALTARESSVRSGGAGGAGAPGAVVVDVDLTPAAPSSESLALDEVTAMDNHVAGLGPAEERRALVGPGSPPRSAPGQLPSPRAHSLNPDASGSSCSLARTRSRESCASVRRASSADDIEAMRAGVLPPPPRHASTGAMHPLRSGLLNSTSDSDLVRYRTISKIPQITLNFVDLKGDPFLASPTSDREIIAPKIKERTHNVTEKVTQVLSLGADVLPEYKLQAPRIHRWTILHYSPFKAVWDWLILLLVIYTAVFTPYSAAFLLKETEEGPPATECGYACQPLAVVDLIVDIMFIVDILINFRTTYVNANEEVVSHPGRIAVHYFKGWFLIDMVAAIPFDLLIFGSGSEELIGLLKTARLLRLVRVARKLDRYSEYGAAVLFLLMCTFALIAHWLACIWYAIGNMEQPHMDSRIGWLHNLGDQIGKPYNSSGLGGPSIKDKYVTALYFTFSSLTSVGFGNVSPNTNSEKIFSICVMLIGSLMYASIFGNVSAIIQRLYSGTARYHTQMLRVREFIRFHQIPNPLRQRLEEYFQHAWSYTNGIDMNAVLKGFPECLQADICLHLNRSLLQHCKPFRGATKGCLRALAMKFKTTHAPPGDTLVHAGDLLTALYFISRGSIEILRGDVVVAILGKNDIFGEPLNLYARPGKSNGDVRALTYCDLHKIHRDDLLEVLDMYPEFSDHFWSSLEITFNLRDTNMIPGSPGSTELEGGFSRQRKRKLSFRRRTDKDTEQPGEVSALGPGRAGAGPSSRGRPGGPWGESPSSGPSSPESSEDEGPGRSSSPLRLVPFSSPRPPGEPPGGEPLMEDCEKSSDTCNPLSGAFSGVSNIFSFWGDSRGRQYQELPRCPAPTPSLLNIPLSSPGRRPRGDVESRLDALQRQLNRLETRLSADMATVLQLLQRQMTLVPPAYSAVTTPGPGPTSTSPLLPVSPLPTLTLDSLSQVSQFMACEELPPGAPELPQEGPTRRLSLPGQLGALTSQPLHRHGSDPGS

Row | SMILES | IC50 [1, 6] [nM] | NRVCM cell viability (MTT) [3] | cardiomyocyte cell death (LIVE/DEAD) [4] | also measured
1 | CCCC(=O)OC1OC(CO)[C@@H](OC(=O)CCC)[C@H](OC(=O)CCC)C1NC(C)=O (some centres unmarked) [1,3,4-O-Bu3GlcNAc] | – | – | – | hERG inhibition (detectable or not) ([1]; up to 1 mM, the highest concentration tested): no detectable inhibition
2 | CCCC(=O)OC1O[C@H](CO)[C@@H](OC(=O)CCC)[C@H](OC(=O)CCC)[C@H]1NC(=O)CN=[N+]=[N-] (some centres unmarked) [1,3,4-O-Bu3GlcNAz] | – | – | – | IC50 ([1]; read-out: hERG inhibition IC50, fluorescence polarization, doses 69.7 pM to 1 mM): 2850 nM
3 | CCCC(=O)OC1OC(CO)[C@@H](OC(=O)CCC)[C@H](OC(=O)CCC)C1NC(=O)CN=[N+]=[N-] (some centres unmarked) [1,3,4-O-Bu3ManNAz] | – | – | – | lipophilicity rank by experimental CHI score [2]: second highest lipophilicity
4 | CCCC(=O)OC[C@H]1OC(O)[C@H](NC(C)=O)[C@@H](OC(=O)CCC)[C@@H]1OC(=O)CCC (some centres unmarked) [3,4,6-O-Bu3GlcNAc] | 1000 to 100000 | significantly reduced NRVCM cell viability | Significantly higher cell death | –
5 | CCCC(=O)OC[C@H]1OC(O)[C@@H](NC(C)=O)[C@@H](OC(=O)CCC)[C@@H]1OC(=O)CCC (some centres unmarked) [3,4,6-O-Bu3ManNAc] | 1000 to 100000 | significantly reduced NRVCM cell viability | Significantly higher cell death | fold greater hERG potency versus 3,4,6-O-Bu3GlcNAc ([1]; ManNAc analog versus GlcNAc analog): ~ 13 fold
6 | CC(=O)N[C@H]1[C@@H](O)[C@H](O)[C@@H](CO)O[C@@H]1O [ManNAc] | – | – | – | effect on CYP3A4 [5]: negligible effect
